Marks after values point to notes of the source that are not given here.
Assays:
Mixed GPC/GNR = assay: Phase 2 CSSSI study, clinical outcome by organism: Mixed GPC/GNR; type: in vivo; details: ME population
Experimental: (§1) A randomized (1:1), controlled, evaluator-blinded Phase 2 study comparing 9-[(2,2-dimethyl-propyl amino)-methyl-minocycline (compound 1) and linezolid (Zyvox™) for the treatment of complicated skin and skin structure infections (CSSSI) was conducted. Patients with CSSSI who required initial intravenous (IV) therapy and met inclusion and exclusion criteria were enrolled at 11 centers in the US and were randomized to receive either compound 1 (100 mg Q24 h IV with 200 mg Q24 h oral step-down) or linezolid (600 mg Q12 h IV with 600 mg Q12 h oral step-down).
(§2) An infecting pathogen was defined as an isolate derived from the last positive culture taken from the site of infection under study prior to and including day 1.

MSSA = assay: Phase 2 CSSSI study, clinical outcome by organism: MSSA; type: in vivo, Staphylococcus aureus; details: for Clinical outcome Failure (number) / Clinical outcome Success (number): ME population, MSSA; for clinical success rate against MSSA: as determined in the trials of the Exemplification
Experimental: as §1, §2

G+ anaerobes = assay: Phase 2 CSSSI study, clinical outcome by organism: G+ anaerobes; type: in vivo, gram-positive anaerobes; details: ME population
Experimental: as §1, §2

infecting pathogen = assay: Phase 2 CSSSI study, microbiology outcome; type: in vivo, human; details: ME population; for Presumed Persistence (% of subjects) / Presumed Persistence (number of subjects): clinical failure; for Presumed Persistence (% of subjects) / Presumed Persistence (number of subjects) / Presumed Eradication (% of subjects) / Presumed Eradication (number of subjects): no pathogen at TOC; for Persistence (% of subjects) / Persistence (number of subjects) / Presumed Eradication (% of subjects) / Presumed Eradication (number of subjects): clinical success; for Persistence (% of subjects) / Persistence (number of subjects): enrollment pathogen isolated at TOC
Experimental: as §2
A persisting pathogen at the site of infection under study was defined as an isolate that was the same genus and species as an infecting pathogen; and was cultured at the Test-of-Cure evaluation from the site of infection under study.
A superinfecting pathogen at the site of infection under study is defined as a pathogen meeting all of the following criteria: represented a genus and species not isolated during the Enrollment evaluation, was cultured at any time from the day 3 of treatment to the test of cure evaluation, inclusive; was cultured from a patient who had at least one infecting pathogen; and was cultured from a patient who represents a “clinical failure.”
Microbiological response to treatment was determined for each infecting pathogen using the following classification: documented eradication, presumed eradication, documented persistence, presumed persistence, or unknown.
Microbiological response to treatment was determined for each subject using the following classification:
Microbiologic Success—all infecting pathogens isolated at baseline were eradicated or presumed eradicated at the test-of-cure evaluation and no superinfecting pathogen was isolated from the site of infection under study.
Microbiological Failure—persistence or presumed persistence of one or more infecting pathogens or isolation of a superinfecting pathogen from the site of infection under study.

[1] = Phase 2 CSSSI study, safety and adverse events by patient; type: in vivo, human
Experimental: as §1
At each of the four structured evaluations, the blinded evaluator assessed the subject, with particular attention to scoring the findings at the primary site of infection and obtaining cultures. Clinical and microbiologic outcomes were determined using these assessments. Primary evaluation criteria was safety and tolerability compared with linezolid. Secondary evaluation criteria was efficacy of compound 1 compared to linezolid, as well as pharmacokinetics of compound 1.
In addition, the patients in the study were monitored for adverse events (AE). An adverse event is any untoward medical occurrence temporally associated with the use of a medical product in a subject, whether or not the event is considered causally related to the medical product.

[2] = Phase 2 CSSSI study, subject disposition (discontinuations); type: in vivo, human; details: ITT population
Experimental: as §1
All subjects had four structured evaluations: at Enrollment (Baseline); at End of IV Treatment; at End of Treatment; and at 10 to 17 days after last dose of treatment (test of cure (TOC) evaluation). In addition, the blinded investigator saw each subject daily while they were on IV therapy and at least every 3 days while receiving oral treatment to determine whether to continue current treatment, switch from IV to oral therapy, or discontinue treatment.

[3] = probably or possibly drug-related by blinded evaluator

CN(C)c1cc(CNCC(C)(C)C)c(O)c2c1C[C@H]1C[C@H]3[C@H](N(C)C)C(O)=C(C(N)=O)C(=O)[C@@]3(O)C(O)=C1C2=O [Compound 1, 9-[(2,2-dimethyl-propylamino)-methyl]-minocycline]
Clinical outcome Failure (number) (Mixed GPC/GNR): 2
Clinical outcome Success (number) (Mixed GPC/GNR): 12
Clinical outcome Failure (number) (MSSA): 2
Clinical outcome Success (number) (MSSA): 27
clinical success rate against MSSA (MSSA): 93%
Clinical outcome Failure (number) (G+ anaerobes): 0
Clinical outcome Success (number) (G+ anaerobes): 0
Presumed Persistence (% of subjects) (infecting pathogen): 2.7%
Presumed Persistence (number of subjects) (infecting pathogen): 2
Persistence (% of subjects) (infecting pathogen): 2.7%
Persistence (number of subjects) (infecting pathogen): 2
Presumed Eradication (% of subjects) (infecting pathogen): 94.7%
Presumed Eradication (number of subjects) (infecting pathogen): 71
tolerability ([1]; 100 mg Q24 h IV with 200 mg Q24 h oral step-down): well tolerated
Adverse events by patient, Musculoskeletal, Drug Related ([1]; human, in vivo): 0
Adverse events by patient, Musculoskeletal, Total ([1]; human, in vivo): 8
GI events leading to discontinuation of therapy ([1]; human, in vivo): did not result in discontinuation of therapy
severity of GI events ([1]; observed almost entirely during oral therapy): mild
Adverse events by patient, Cardiac, Drug Related [1, 3]: 0
Adverse events by patient, Ear, Drug Related [1, 3]: 0
Adverse events by patient, Eye, Drug Related [1, 3]: 0
Adverse events by patient, GI, Drug Related [1, 3]: 12
Adverse events by patient, General, Drug Related [1, 3]: 5
Adverse events by patient, Heme, Drug Related [1, 3]: 0
Adverse events by patient, Infection, Drug Related [1, 3]: 0
Adverse events by patient, Injury, Drug Related [1, 3]: 0
Adverse events by patient, Investigations, Drug Related [1, 3]: 3
Adverse events by patient, Metabolism, Drug Related [1, 3]: 1
Adverse events by patient, Neurologic, Drug Related [1, 3]: 4
Adverse events by patient, Psych, Drug Related [1, 3]: 2
Adverse events by patient, Renal, Drug Related [1, 3]: 1
Adverse events by patient, Reproductive, Drug Related [1, 3]: 0
Adverse events by patient, Respiratory, Drug Related [1, 3]: 0
Adverse events by patient, Skin, Drug Related [1, 3]: 7
Adverse events by patient, Vascular, Drug Related [1, 3]: 0
Adverse events by patient, Cardiac, Total ([1]; safety population): 4
Adverse events by patient, Ear, Total ([1]; safety population): 0
Adverse events by patient, Eye, Total ([1]; safety population): 2
Adverse events by patient, GI, Total ([1]; safety population): 21
Adverse events by patient, General, Total ([1]; safety population): 11
Adverse events by patient, Heme, Total ([1]; safety population): 1
Adverse events by patient, Infection, Total ([1]; safety population): 6
Adverse events by patient, Injury, Total ([1]; safety population): 1
Adverse events by patient, Investigations, Total ([1]; safety population): 7
Adverse events by patient, Metabolism, Total ([1]; safety population): 9
Adverse events by patient, Neurologic, Total ([1]; safety population): 12
Adverse events by patient, Psych, Total ([1]; safety population): 5
Adverse events by patient, Renal, Total ([1]; safety population): 2
Adverse events by patient, Reproductive, Total ([1]; safety population): 2
Adverse events by patient, Respiratory, Total ([1]; safety population): 3
Adverse events by patient, Skin, Total ([1]; safety population): 12
Adverse events by patient, Vascular, Total ([1]; safety population): 3
Patients with no adverse event (None), % ([1]; safety population): 58.6%
Patients with no adverse event (None), number ([1]; safety population): 65
Total Patients with 1 or more AE, % ([1]; safety population): 41.4%
Total Patients with 1 or more AE, number ([1]; safety population): 56
Premature Discontinuation (% of subjects) [2]: (4.5%)
Premature Discontinuation (number of subjects) [2]: 5
Premature Discontinuation due to Adverse Event (% of subjects) [2]: (0.9%)
Premature Discontinuation due to Adverse Event (number of subjects) [2]: 1
Premature Discontinuation due to Treatment Failure (% of subjects) [2]: (0.9%)
Premature Discontinuation due to Treatment Failure (number of subjects) [2]: 1
Premature Discontinuation due to Adverse Event (number of subjects) ([2]; listed as compound 1): no discontinuations

CC(=O)NCC1CN(c2ccc(N3CCOCC3)c(F)c2)C(=O)O1 (centres unmarked) [Linezolid, N-[[3-(3-fluoro-4-morpholinophenyl)-2-oxooxazolidin-5-yl]methyl]acetamide, reference compound]
Clinical outcome Failure (number) (Mixed GPC/GNR): 0
Clinical outcome Success (number) (Mixed GPC/GNR): 10
Clinical outcome Failure (number) (MSSA): 2
Clinical outcome Success (number) (MSSA): 21
clinical success rate against MSSA (MSSA): 91%
Clinical outcome Failure (number) (G+ anaerobes): 0
Clinical outcome Success (number) (G+ anaerobes): 3
Presumed Persistence (% of subjects) (infecting pathogen): 6.3%
Presumed Persistence (number of subjects) (infecting pathogen): 4
Persistence (% of subjects) (infecting pathogen): 1.6%
Persistence (number of subjects) (infecting pathogen): 1
Presumed Eradication (% of subjects) (infecting pathogen): 92.1%
Presumed Eradication (number of subjects) (infecting pathogen): 58
Adverse events by patient, Cardiac, Drug Related [1, 3]: 3
Adverse events by patient, Ear, Drug Related [1, 3]: 1
Adverse events by patient, Eye, Drug Related [1, 3]: 1
Adverse events by patient, GI, Drug Related [1, 3]: 13^b
Adverse events by patient, General, Drug Related [1, 3]: 4
Adverse events by patient, Heme, Drug Related [1, 3]: 0
Adverse events by patient, Infection, Drug Related [1, 3]: 1
Adverse events by patient, Injury, Drug Related [1, 3]: 1
Adverse events by patient, Investigations, Drug Related [1, 3]: 8
Adverse events by patient, Metabolism, Drug Related [1, 3]: 2
Adverse events by patient, Musculoskeletal, Drug Related [1, 3]: 0
Adverse events by patient, Neurologic, Drug Related [1, 3]: 7
Adverse events by patient, Psych, Drug Related [1, 3]: 3
Adverse events by patient, Renal, Drug Related [1, 3]: 0
Adverse events by patient, Reproductive, Drug Related [1, 3]: 0
Adverse events by patient, Respiratory, Drug Related [1, 3]: 0
Adverse events by patient, Skin, Drug Related [1, 3]: 6^c
Adverse events by patient, Vascular, Drug Related [1, 3]: 1
Adverse events by patient, GI, Drug Related ([1]; probably or possibly drug-related by blinded evaluator, listed as linezolid): 13
Adverse events by patient, Cardiac, Total ([1]; safety population): 4
Adverse events by patient, Ear, Total ([1]; safety population): 2
Adverse events by patient, Eye, Total ([1]; safety population): 1
Adverse events by patient, GI, Total ([1]; safety population): 21
Adverse events by patient, General, Total ([1]; safety population): 8
Adverse events by patient, Heme, Total ([1]; safety population): 2
Adverse events by patient, Infection, Total ([1]; safety population): 9
Adverse events by patient, Injury, Total ([1]; safety population): 1
Adverse events by patient, Investigations, Total ([1]; safety population): 11
Adverse events by patient, Metabolism, Total ([1]; safety population): 7
Adverse events by patient, Musculoskeletal, Total ([1]; safety population): 2
Adverse events by patient, Neurologic, Total ([1]; safety population): 15
Adverse events by patient, Psych, Total ([1]; safety population): 6
Adverse events by patient, Renal, Total ([1]; safety population): 2
Adverse events by patient, Reproductive, Total ([1]; safety population): 1
Adverse events by patient, Respiratory, Total ([1]; safety population): 2
Adverse events by patient, Skin, Total ([1]; safety population): 10
Adverse events by patient, Vascular, Total ([1]; safety population): 1
Patients with no adverse event (None), % ([1]; safety population): 49.1%
Patients with no adverse event (None), number ([1]; safety population): 53
Total Patients with 1 or more AE, % ([1]; safety population): 50.9%
Total Patients with 1 or more AE, number ([1]; safety population): 55
Premature Discontinuation (% of subjects) [2]: (7.4%)
Premature Discontinuation (number of subjects) [2]: 8
Premature Discontinuation due to Adverse Event (% of subjects) [2]: (1.9%)
Premature Discontinuation due to Adverse Event (number of subjects) [2]: 2
Premature Discontinuation due to Treatment Failure (number of subjects) [2]: 0

Source: patent US9724358B2, “Minocycline compounds and methods of use thereof” (Paratek Pharmaceuticals, Inc., priority 2008, dated 2017)
